# Article PMC4059401 (Xenobiotica; the fate of foreign compounds in biological …, 2013)
# How the values were obtained:
# [1] = biological target: CYP3A4 (Homo sapiens, UniProt P08684); assay: metabolite formation by recombinant CYP Supersomes, LC/MS; type: cell-based
# [2] = biological target: CYP1A2 (Homo sapiens, UniProt P05177); assay: as above; type: cell-based
# [3] = biological target: CYP2D6 (Homo sapiens, UniProt P10635); assay: UV-visible spectral binding titration, purified enzyme
# Chain of CYP2D6 (P10635 whole entry): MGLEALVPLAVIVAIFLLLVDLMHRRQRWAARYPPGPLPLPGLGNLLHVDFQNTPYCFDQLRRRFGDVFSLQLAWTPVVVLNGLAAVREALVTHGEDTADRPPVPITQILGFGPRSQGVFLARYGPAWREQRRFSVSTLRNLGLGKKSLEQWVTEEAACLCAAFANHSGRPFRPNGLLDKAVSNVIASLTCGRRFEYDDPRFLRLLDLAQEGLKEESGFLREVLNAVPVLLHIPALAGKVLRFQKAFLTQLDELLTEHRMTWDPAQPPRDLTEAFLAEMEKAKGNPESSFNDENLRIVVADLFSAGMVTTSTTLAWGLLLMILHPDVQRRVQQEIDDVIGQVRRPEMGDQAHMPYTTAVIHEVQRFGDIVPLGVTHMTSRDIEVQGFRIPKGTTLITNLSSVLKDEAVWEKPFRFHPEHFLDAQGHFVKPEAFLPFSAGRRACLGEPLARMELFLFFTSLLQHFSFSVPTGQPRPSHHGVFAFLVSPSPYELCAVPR
# Chain of CYP1A2 (P16435 2-677): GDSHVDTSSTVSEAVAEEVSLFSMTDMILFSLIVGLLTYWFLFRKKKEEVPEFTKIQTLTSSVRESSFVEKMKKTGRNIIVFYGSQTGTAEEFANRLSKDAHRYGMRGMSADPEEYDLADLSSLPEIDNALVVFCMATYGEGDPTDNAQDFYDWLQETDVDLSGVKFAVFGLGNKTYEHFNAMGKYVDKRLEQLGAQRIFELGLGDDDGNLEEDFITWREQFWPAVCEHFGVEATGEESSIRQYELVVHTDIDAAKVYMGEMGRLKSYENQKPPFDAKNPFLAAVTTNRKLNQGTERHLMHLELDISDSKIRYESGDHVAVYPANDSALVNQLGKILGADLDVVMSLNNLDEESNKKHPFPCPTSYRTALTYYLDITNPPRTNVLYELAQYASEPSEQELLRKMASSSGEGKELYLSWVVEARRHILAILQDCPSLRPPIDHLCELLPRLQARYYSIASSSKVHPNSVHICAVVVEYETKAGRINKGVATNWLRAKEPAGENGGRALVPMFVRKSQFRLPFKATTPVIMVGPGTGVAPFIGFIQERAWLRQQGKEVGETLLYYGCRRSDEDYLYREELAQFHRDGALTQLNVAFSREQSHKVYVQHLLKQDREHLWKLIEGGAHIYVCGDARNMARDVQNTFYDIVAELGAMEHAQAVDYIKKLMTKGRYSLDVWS
# Chain of CYP1A2 (P05177 2-516): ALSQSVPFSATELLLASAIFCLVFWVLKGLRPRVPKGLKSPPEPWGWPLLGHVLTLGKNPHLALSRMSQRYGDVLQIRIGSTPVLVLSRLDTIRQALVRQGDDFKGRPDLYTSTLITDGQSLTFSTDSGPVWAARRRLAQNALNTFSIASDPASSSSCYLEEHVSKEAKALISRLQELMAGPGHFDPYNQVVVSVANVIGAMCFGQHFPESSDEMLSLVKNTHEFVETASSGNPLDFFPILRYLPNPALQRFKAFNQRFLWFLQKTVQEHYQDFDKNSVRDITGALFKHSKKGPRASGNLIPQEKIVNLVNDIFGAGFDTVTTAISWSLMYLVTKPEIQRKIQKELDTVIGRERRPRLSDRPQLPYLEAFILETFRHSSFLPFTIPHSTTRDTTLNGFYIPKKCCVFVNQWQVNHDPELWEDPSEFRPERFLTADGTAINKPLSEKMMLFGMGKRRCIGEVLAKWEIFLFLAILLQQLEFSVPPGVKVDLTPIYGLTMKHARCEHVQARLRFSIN
# Chain of CYP3A4 (P16435 2-677): as the sequence (P16435 2-677) above
# Chain of CYP3A4 (P08684 2-503): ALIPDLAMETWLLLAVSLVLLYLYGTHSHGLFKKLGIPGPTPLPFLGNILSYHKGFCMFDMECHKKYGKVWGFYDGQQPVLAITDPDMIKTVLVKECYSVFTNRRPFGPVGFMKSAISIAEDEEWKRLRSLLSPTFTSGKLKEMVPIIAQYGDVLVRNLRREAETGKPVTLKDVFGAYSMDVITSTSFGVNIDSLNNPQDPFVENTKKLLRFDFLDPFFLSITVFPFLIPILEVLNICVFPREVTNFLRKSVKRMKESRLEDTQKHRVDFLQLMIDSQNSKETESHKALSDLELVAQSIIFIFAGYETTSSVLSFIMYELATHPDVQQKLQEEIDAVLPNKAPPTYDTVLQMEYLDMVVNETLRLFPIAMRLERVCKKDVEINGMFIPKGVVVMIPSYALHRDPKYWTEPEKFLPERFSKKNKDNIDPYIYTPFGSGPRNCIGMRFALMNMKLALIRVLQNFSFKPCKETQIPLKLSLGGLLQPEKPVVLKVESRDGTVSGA
compound,measurement,setting,value
"CCN(CC)CCNC(=O)c1cc(Cl)c(N)cc1OC [Metoclopramide, 4-amino-5-chloro-N-(2-(diethylamino)ethyl)-2-methoxybenzamide]","metabolite formation by recombinant CYP Supersomes, LC/MS",[1],"All three monooxygenation products (M4a, M4b, M4c) were formed by CYP3A4 and CYP2D6"
same,"metabolite formation by recombinant CYP Supersomes, LC/MS",[2],"CYPs 1A2, 2C9, 2C19, and 3A4 also metabolized metoclopramide."
same,Kd,[3],9.56 ± 1.09 µM
